Laboratory results published in publication PMC12481576, “Barbituric Acid Derivatives as Covalent Inhibitors of Leishmania braziliensis Dihydroorotate Dehydrogenase” (Journal of Medicinal Chemistry, 2025).
Values joined by “and” are separate entries in the source; they are usually repeats but may differ in a detail not shown here. Identical values can stand only once. Like-named read-outs stand apart in the source and are kept apart here.

Legend:
[1] = target: LbDHODH (Leishmania braziliensis, UniProt E9AI53); experiment: biochemical
Procedure, shortened: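 Screened at 100 μM with and without 4-h enzyme preincubation; DCIP reduction during DHO oxidation read at 610 nm every 3 s for 60 s in 50 mM Tris pH 8.15, 150 mM KCl, 0.1% Triton X-100, triplicate, 5% DMSO control. kinact/KI taken as slope of kobs versus inhibitor concentration (initial linear region).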

[2] = for Calculated T-half (min), Average / Calculated T-half (min), n=1 / Calculated T-half (min), n=2: mouse liver microsomes (CD1 male), 0.4 mg/ml protein, test conc 1 µM; for Calculated T-half (min), Average: average of n=1 and n=2; for Calculated T-half (min), n=1: replicate n=1; for Calculated T-half (min), n=2: replicate n=2; for Raw data: analyte peak area, T=0: 0 min; for Raw data: analyte peak area, T=0 / Raw data: analyte peak area, T=5 / Raw data: analyte peak area, T=10 / Raw data: analyte peak area, T=20: raw LC-MS area; for Modified T-half (min), Average: limited to T Half range 3.00 - […]; for Raw data: analyte peak area, T=5: 5 min; for Raw data: analyte peak area, T=10: 10 min; for Raw data: analyte peak area, T=20: 20 min; for mouse liver microsomes T-half: NADPH, 1 μM
[3] = Parallel artificial membrane permeability assay (PAMPA); conditions: for LogPe (cm/sec) n1: replicate n1, calculation section; for LogPe (cm/sec) n1 / LogPe (cm/sec) n2: PBS pH 7.4/7.4, 6h; for LogPe (cm/sec) n2: replicate n2, calculation section; for Pe (nm/sec) n=1 / % Recovery n=1: replicate n=1; for Pe (nm/sec) n=1 / Pe (nm/sec) n=2: 10µM (5% DMSO)
Method: Solutions of the compounds were prepared in duplicate by diluting the stock solutions (10 mM) in phosphate buffered saline (PBS) pH 7.4 at a final concentration of 10 μM (5% DMSO). The solutions diluted in PBS pH 7.4 were then added to the donor portion of the plate (300 μL/well), while in the acceptor portion PBS pH 7.4 (200 μL/well) was added. The two portions of the plate were then coupled, and the system was incubated for 6 h at room temperature. Samples of the initial donor solution (T0) were collected at the beginning (T0) and stored at 5 °C. The final concentrations of compounds in the donor, acceptor and T0 wells were quantified by LC-MS/MS.

[4] = target: T1, HsDHODH (Homo sapiens, UniProt Q02127); experiment: Selectivity assay: HsDHODH single-dose inhibition (DCIP reduction); format: biochemical
T1 construct: made in house
Procedure, shortened: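 Recombinant human DHODH at 20 nM final, purified by Ni-NTA affinity, tested at a single compound concentration in triplicate. DCIP reduction followed at 610 nm every 3 s over 60 s. Velocity expressed as % activity relative to enzyme control without compound.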

[5] = Cell viability / cytotoxicity assay (PrestoBlue, 72 h); format: cell-based; conditions: human; THP-1 cell line, 72 h, max 200 μM; read-out: CC50
Procedure, shortened: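 PMA-differentiated THP-1 cells (150 ng/mL PMA, 48 h; then 24 h in fresh medium) were exposed to compounds in serial dilution from 200 μM for 72 h at 37 °C, 5% CO2. Viability was read by PrestoBlue fluorescence (ex 560/em 590 nm) after 2 h.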

[6] = in vitro; conditions: microsomes; for microsomal CLint at 1 μM / remaining at 5 min, 1 μM: male, CD1, mouse; for remaining at 5 min, 1 μM / remaining at 10 min, 1 µM / remaining at 20 min, 1 µM / remaining at 0.5 h, 1 µM / remaining at 1 h, 1 µM: pH 7.4, % Remaining; for remaining at 5 min, 1 μM: T=5 min; for remaining at 10 min, 1 µM / remaining at 20 min, 1 µM / remaining at 0.5 h, 1 µM / remaining at 1 h, 1 µM: mouse; for remaining at 10 min, 1 µM: T=10 min; for remaining at 20 min, 1 µM: T=20 min; for remaining at 0.5 h, 1 µM: T=30 min, 30 min; for remaining at 1 h, 1 µM: T=60 min, 60 min
[7] = Mouse liver microsome stability in the absence of cofactors (NCF); conditions: 60 min, no cofactor (NCF); for Raw data: analyte peak area, T=60 NCF: mouse liver microsomes, raw LC-MS area; for remaining at 1 h, 1 µM: mouse, microsomes, pH 7.4, % Remaining, T=60 NCF
[8] = 0 h, pH 8.15, read-out: LbDHODH Activity±SD (%)
[9] = 4 h, pH 8.15, read-out: LbDHODH Activity±SD (%)
[10] = IC50 0 h, LbDHODH, without preincubation
[11] = IC50 4 h, LbDHODH, 4-h preincubation
[12] = read-out: Single dose (0h) % activity
[13] = read-out: Single dose (4h) % activity
[14] = mouse liver microsomes, replicate 1 (left block)
[15] = mouse liver microsomes, replicate 2 (right block)
[16] = mouse liver microsomes, 0.4 mg/ml, 1 µM
[17] = PAMPA, pH 7.4, % Recovery n=1, replicate n=1, 10µM, PBS pH 7.4/7.4, 6h at room temperature
[18] = PAMPA, pH 7.4, % Recovery n=2, replicate n=2, 10µM, PBS pH 7.4/7.4, 6h at room temperature
[19] = PAMPA, pH 7.4, Avg % Recovery, average of n=2, 10µM, PBS pH 7.4/7.4, 6h at room temperature
[20] = average of n=2, 10µM, PBS pH 7.4/7.4, 6h at room temperature
[21] = PBS pH 7.4/7.4, 6h at room temperature, LC-MS/MS
[22] = 10µM, PBS pH 7.4/7.4, 6h at room temperature
[23] = replicate n=2, PBS pH 7.4/7.4, 6h at room temperature, LC-MS/MS
[24] = n=1, mouse liver microsomes, n=1
[25] = n=2, mouse liver microsomes, n=2
[26] = pH 7.4, mouse liver microsomes CLint, app, mouse liver microsomes, NADPH, 1 μM

Sequence of LbDHODH (E9AI53 entry or part of it): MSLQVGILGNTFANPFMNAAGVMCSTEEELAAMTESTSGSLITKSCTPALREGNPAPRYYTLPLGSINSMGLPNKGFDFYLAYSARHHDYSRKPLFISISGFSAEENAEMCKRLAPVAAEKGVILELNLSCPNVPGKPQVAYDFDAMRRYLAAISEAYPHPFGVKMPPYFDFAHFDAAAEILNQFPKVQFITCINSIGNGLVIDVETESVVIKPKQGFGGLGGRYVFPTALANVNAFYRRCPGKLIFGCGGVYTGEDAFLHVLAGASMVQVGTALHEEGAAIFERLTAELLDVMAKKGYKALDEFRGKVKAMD
T1 sequence (Q02127 whole entry): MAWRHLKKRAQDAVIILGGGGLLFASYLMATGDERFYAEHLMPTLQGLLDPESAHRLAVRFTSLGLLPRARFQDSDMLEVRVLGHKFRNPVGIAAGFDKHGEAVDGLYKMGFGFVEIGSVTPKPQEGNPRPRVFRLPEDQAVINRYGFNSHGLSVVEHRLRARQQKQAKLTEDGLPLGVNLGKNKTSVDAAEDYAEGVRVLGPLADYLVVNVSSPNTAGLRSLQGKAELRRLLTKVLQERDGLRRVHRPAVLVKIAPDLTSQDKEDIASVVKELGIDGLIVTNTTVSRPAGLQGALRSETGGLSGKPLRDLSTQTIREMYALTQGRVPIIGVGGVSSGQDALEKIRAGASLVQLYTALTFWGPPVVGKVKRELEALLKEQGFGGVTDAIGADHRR

O=C1NC(=O)C(=Cc2ccc(N3CCOCC3)cc2[N+](=O)[O-])C(=O)N1 [2e, 5-(4-Morpholino-2-nitrobenzylidene)pyrimidine-2,4,6(1H,3H,5H)-trione]
activity at 0.048828 µM [1, 8]: 87 ± 1% | activity at 0.0976562 µM [1, 8]: 92 ± 1% | activity at 0.195312 µM [1, 8]: 94 ± 1% | activity at 0.390625 µM [1, 8]: 79 ± 3% | activity at 0.78125 µM [1, 8]: 83 ± 4% | activity at 1.5625 µM [1, 8]: 71 ± 2% | activity at 3.125 µM [1, 8]: 67 ± 4% | activity at 6.25 µM [1, 8]: 45 ± 3% | activity at 12.5 µM [1, 8]: 31 ± 4% | activity at 25 µM [1, 8]: 22 ± 1% | activity at 50 µM [1, 8]: 7 ± 5% | activity at 100 µM [1, 8]: 10 ± 1% | activity at 0.048828 µM [1, 9]: 104 ± 4% | activity at 0.0976562 µM [1, 9]: 107 ± 3% | activity at 0.195312 µM [1, 9]: 104 ± 3% | activity at 0.390625 µM [1, 9]: 106 ± 7% | activity at 0.78125 µM [1, 9]: 103 ± 1% | activity at 1.5625 µM [1, 9]: 85 ± 2% | activity at 3.125 µM [1, 9]: 87 ± 2% | activity at 6.25 µM [1, 9]: 87 ± 2% | activity at 12.5 µM [1, 9]: 60 ± 8% | activity at 25 µM [1, 9]: 67 ± 6% | activity at 50 µM [1, 9]: 35 ± 4% | activity at 100 µM [1, 9]: 13 ± 1% | IC50 [1, 10]: 5 ± 1 µM | IC50 [1, 11]: 28 ± 3 µM | activity at 100 µM [1, 12]: 10 ± 1% | activity at 100 µM [1, 13]: 7 ± 2% | inhibition at 100 µM ([1]; read-out: enzyme inhibition): 90 to 93% | Calculated T-half (min), Average [2]: 298.4 min | Calculated T-half (min), n=1 [2]: 354.59 min and 354.6 min | Calculated T-half (min), n=2 [2]: 242.28 min and 242.3 min | Raw data: analyte peak area, T=0 [2, 14]: 18699 | Raw data: analyte peak area, T=0 [2, 15]: 19500 | Modified T-half (min), Average [2, 16]: >120.0 min | Raw data: analyte peak area, T=5 [2, 14]: 18869 | Raw data: analyte peak area, T=5 [2, 15]: 20171 | Raw data: analyte peak area, T=10 [2, 14]: 18566 | Raw data: analyte peak area, T=10 [2, 15]: 21617 | Raw data: analyte peak area, T=20 [2, 14]: 17411 | Raw data: analyte peak area, T=20 [2, 15]: 21071 | mouse liver microsomes T-half ([2]; mouse liver microsomes): >120.0 min | Remarks (PAMPA) ([3]; 10µM, PBS pH 7.4/7.4, 6h at room temperature, LC-MS/MS): No peak detected in acceptor samples | recovery at 6 h, 10 µM [3, 17]: 95.1% | recovery at 6 h, 10 µM [3, 18]: 101% | recovery at 6 h, 10 µM [3, 19]: 98.2% | Avg Log Pe (cm/sec) [3, 20]: -9.4 cm/sec and -9.35 cm/sec | Avg Pe [3, 20]: 0.000444 ×10⁻⁶ cm/s | LogPe (cm/sec) n1 ([3]; 10µM): -9.34 cm/sec | LogPe (cm/sec) n2 ([3]; 10µM): -9.37 cm/sec | Pe (nm/sec) n=1 [3, 21]: 0.00461 nm/s | % Recovery n=1 [3, 22]: 95.05% | Pe (nm/sec) n=2 [3, 23]: 0.00426 nm/s | activity at 100 µM [4, 12]: 80 ± 9% | activity at 100 µM [4, 13]: 86 ± 8% | CC50 at 72 h [5]: > 200 µM | microsomal CLint at 1 μM ([6]; pH 7.4): < 14.4 µL/min/mg | remaining at 5 min, 1 μM [6, 24]: 91.8% | remaining at 5 min, 1 μM [6, 25]: 103% | microsomal CLint at 1 μM [6, 26]: < 14.4 µL/min/mg | remaining at 10 min, 1 µM [6, 24]: 96% | remaining at 10 min, 1 µM [6, 25]: 109% | remaining at 20 min, 1 µM [6, 24]: 83.8% | remaining at 20 min, 1 µM [6, 25]: 99.7% | remaining at 0.5 h, 1 µM [6, 24]: 85% | remaining at 0.5 h, 1 µM [6, 25]: 91.7% | remaining at 1 h, 1 µM [6, 24]: 87.6% | remaining at 1 h, 1 µM [6, 25]: 88.8% | Raw data: analyte peak area, T=60 NCF ([7]; replicate 1 (left block)): 19133 | Raw data: analyte peak area, T=60 NCF ([7]; replicate 2 (right block)): 18454 | remaining at 1 h, 1 µM [7, 24]: 100% | remaining at 1 h, 1 µM [7, 25]: 93.1%

O=C1NC(=O)C(=Cc2ccc(-c3ccccc3F)[nH]2)C(=O)N1 [2h, 5-((5-(2-Fluorophenyl)-1H-pyrrol-2-yl)methylene)pyrimidine-2,4,6(1H,3H,5H)-trione]
IC50 [1, 10]: > 100 µM | IC50 [1, 11]: > 100 µM | IC50 4 h ([1]; LbDHODH, 4-h preincubation): inactive | activity at 100 µM [1, 12]: 90 ± 10% | activity at 100 µM [1, 13]: 60 ± 10% | Calculated T-half (min), Average [2]: 1.7 min | Calculated T-half (min), n=1 [2]: 1.70 min and 1.7 min | Calculated T-half (min), n=2 [2]: 1.71 min and 1.7 min | Modified T-half (min), Average [2, 16]: <3.0 min | Remarks (mouse microsomal stability study) ([2]; mouse liver microsomes, 0.4 mg/ml, 1 µM, NCF = no cofactor control): Very fast metabolism; Low NCF | mouse liver microsomes T-half ([2]; mouse liver microsomes): <3.0 min | recovery at 6 h, 10 µM [3, 17]: 38% | recovery at 6 h, 10 µM [3, 18]: 43.3% | recovery at 6 h, 10 µM [3, 19]: 40.6% | Papp ([3]; PAMPA, pH 7.4, permeability, PBS pH 7.4, 10 μM, 6 h): 1.54 ×10⁻⁶ cm/s | Avg Log Pe (cm/sec) [3, 20]: -5.8 cm/sec and -5.83 cm/sec | Avg Pe [3, 20]: 1.54 ×10⁻⁶ cm/s and 1.539 ×10⁻⁶ cm/s | LogPe (cm/sec) n1 ([3]; 10µM): -5.97 cm/sec | LogPe (cm/sec) n2 ([3]; 10µM): -5.70 cm/sec | Pe (nm/sec) n=1 [3, 21]: 10.8 nm/s and 10.80 nm/s | % Recovery n=1 [3, 22]: 37.96% | Pe (nm/sec) n=2 [3, 23]: 20.0 nm/s and 19.97 nm/s | % Recovery n=2 ([3]; replicate n=2, 10µM, PBS pH 7.4/7.4, 6h at room temperature): 43.27% | activity at 100 µM [4, 12]: 100 ± 11% | activity at 100 µM [4, 13]: 71 ± 7% | CC50 at 72 h [5]: > 200 µM | microsomal CLint at 1 μM ([6]; pH 7.4): > 578 µL/min/mg | remaining at 5 min, 1 μM [6, 24]: 5.9% | remaining at 5 min, 1 μM [6, 25]: 5.1% | microsomal CLint at 1 μM [6, 26]: > 578 µL/min/mg | remaining at 10 min, 1 µM [6, 24]: 1.7% | remaining at 10 min, 1 µM [6, 25]: 1.7% | remaining at 20 min, 1 µM [6, 24]: 0.7% | remaining at 20 min, 1 µM [6, 25]: 0.7% | remaining at 0.5 h, 1 µM [6, 24]: 0.554% | remaining at 0.5 h, 1 µM [6, 25]: 0.554% | remaining at 1 h, 1 µM [6, 24]: 0.158% | remaining at 1 h, 1 µM [6, 25]: 0.16% | remaining at 1 h, 1 µM [7, 24]: 1% | remaining at 1 h, 1 µM [7, 25]: 1.5%
